According to PubChem BioAssay (NCI):
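GI50: concentration for 50% inhibition of growth. The concentration for full growth arrest is given as TGI.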

Experiments:
Assay in all cases: DTP human tumour cell line panel, 384-well format
786-0 renal = system: 786-0 renal
A498 renal = system: A498 renal
A549 NSCLC = system: A549 NSCLC
ACHN renal = system: ACHN renal
BT-549 breast = system: BT-549 breast
CAKI-1 renal = system: CAKI-1 renal
CCRF-CEM leukemia = system: CCRF-CEM leukemia
COLO 205 colon = system: COLO 205 colon
DU-145 prostate = system: DU-145 prostate
EKVX NSCLC = system: EKVX NSCLC
HCC-2998 colon = system: HCC-2998 colon
HCT-15 colon = system: HCT-15 colon
HL-60(TB) leukemia = system: HL-60(TB) leukemia
HOP-62 NSCLC = system: HOP-62 NSCLC
HOP-92 NSCLC = system: HOP-92 NSCLC
HS 578T breast = system: HS 578T breast
HT29 colon = system: HT29 colon
IGROV1 ovarian = system: IGROV1 ovarian
KM12 colon = system: KM12 colon
M14 melanoma = system: M14 melanoma
MALME-3M melanoma = system: MALME-3M melanoma
MCF7 breast = system: MCF7 breast
MDA-MB-231 breast = system: MDA-MB-231 breast
MDA-MB-435 melanoma = system: MDA-MB-435 melanoma
MDA-MB-468 breast = system: MDA-MB-468 breast
MOLT-4 leukemia = system: MOLT-4 leukemia
NCI-H226 lung = system: NCI-H226 lung
NCI-H23 lung = system: NCI-H23 lung
NCI-H322M lung = system: NCI-H322M lung
NCI-H460 NSCLC = system: NCI-H460 NSCLC
NCI-H522 lung = system: NCI-H522 lung
NCI/ADR-RES ovarian = system: NCI/ADR-RES ovarian
OVCAR-3 ovarian = system: OVCAR-3 ovarian
OVCAR-4 ovarian = system: OVCAR-4 ovarian
OVCAR-5 ovarian = system: OVCAR-5 ovarian
OVCAR-8 ovarian = system: OVCAR-8 ovarian
PC-3 prostate = system: PC-3 prostate
RPMI-8226 leukemia = system: RPMI-8226 leukemia
RXF 393 renal = system: RXF 393 renal
SF-268 CNS = system: SF-268 CNS
SF-295 CNS = system: SF-295 CNS
SF-539 CNS = system: SF-539 CNS
SK-MEL-2 melanoma = system: SK-MEL-2 melanoma
SK-MEL-28 melanoma = system: SK-MEL-28 melanoma
SK-MEL-5 melanoma = system: SK-MEL-5 melanoma
SK-OV-3 ovarian = system: SK-OV-3 ovarian
SN12C renal = system: SN12C renal
SNB-19 CNS = system: SNB-19 CNS
SNB-75 CNS = system: SNB-75 CNS
SR leukemia = system: SR leukemia
SW-620 colon = system: SW-620 colon
T-47D breast = system: T-47D breast
TK-10 renal = system: TK-10 renal
U251 glioblastoma = system: U251 glioblastoma
UACC-257 melanoma = system: UACC-257 melanoma
UACC-62 melanoma = system: UACC-62 melanoma

Cc1[nH]c(/C=C2\C(=O)Nc3ccccc32)c(C)c1CCC(=O)O
GI50 (786-0 renal): 52 µM | TGI (786-0 renal): > 100 µM | GI50 (A498 renal): 29 µM | TGI (A498 renal): > 100 µM | GI50 (A549 NSCLC): 29.2 µM | TGI (A549 NSCLC): 84.7 µM | GI50 (ACHN renal): 24.6 µM | TGI (ACHN renal): 68.4 µM | GI50 (BT-549 breast): 18 µM | TGI (BT-549 breast): 42.3 µM | GI50 (CAKI-1 renal): 15.1 µM | TGI (CAKI-1 renal): 40.3 µM | GI50 (CCRF-CEM leukemia): 18.1 µM | TGI (CCRF-CEM leukemia): 34.4 µM | GI50 (COLO 205 colon): 22.8 µM | TGI (COLO 205 colon): 38.7 µM | GI50 (DU-145 prostate): 35.4 µM | TGI (DU-145 prostate): > 100 µM | GI50 (EKVX NSCLC): 17.6 µM | TGI (EKVX NSCLC): 52.7 µM | GI50 (HCC-2998 colon): 24.1 µM | TGI (HCC-2998 colon): 75.3 µM | GI50 (HCT-15 colon): 25.3 µM | TGI (HCT-15 colon): 59.6 µM | GI50 (HL-60(TB) leukemia): 23.9 µM | TGI (HL-60(TB) leukemia): 39.2 µM | GI50 (HOP-62 NSCLC): 42.4 µM | TGI (HOP-62 NSCLC): > 100 µM | GI50 (HOP-92 NSCLC): 19.8 µM | TGI (HOP-92 NSCLC): 43.3 µM | GI50 (HS 578T breast): 22.1 µM | TGI (HS 578T breast): 78.7 µM | GI50 (HT29 colon): 26 µM | TGI (HT29 colon): 67.6 µM | GI50 (IGROV1 ovarian): 25.6 µM | TGI (IGROV1 ovarian): 86.5 µM | GI50 (KM12 colon): 4.33 µM | TGI (KM12 colon): 52.9 µM | GI50 (M14 melanoma): 15.1 µM | TGI (M14 melanoma): 33.9 µM | GI50 (MALME-3M melanoma): 5.47 µM | TGI (MALME-3M melanoma): 23.1 µM | GI50 (MCF7 breast): 39.9 µM | TGI (MCF7 breast): > 100 µM | GI50 (MDA-MB-231 breast): 16.5 µM | TGI (MDA-MB-231 breast): 53 µM | GI50 (MDA-MB-435 melanoma): 21.3 µM | TGI (MDA-MB-435 melanoma): 51.4 µM | GI50 (MDA-MB-468 breast): 16.3 µM | TGI (MDA-MB-468 breast): 32.6 µM | GI50 (MOLT-4 leukemia): 16.3 µM | TGI (MOLT-4 leukemia): 30.3 µM | GI50 (NCI-H226 lung): 15.3 µM | TGI (NCI-H226 lung): 34.4 µM | GI50 (NCI-H23 lung): 16.6 µM | TGI (NCI-H23 lung): 40.1 µM | GI50 (NCI-H322M lung): 38.4 µM | TGI (NCI-H322M lung): > 100 µM | GI50 (NCI-H460 NSCLC): 17.6 µM | TGI (NCI-H460 NSCLC): 34.2 µM | GI50 (NCI-H522 lung): 21.2 µM | TGI (NCI-H522 lung): 62.1 µM | GI50 (NCI/ADR-RES ovarian): 31.9 µM | TGI (NCI/ADR-RES ovarian): > 100 µM | GI50 (OVCAR-3 ovarian): 27.4 µM | TGI (OVCAR-3 ovarian): 89 µM | GI50 (OVCAR-4 ovarian): 22.6 µM | TGI (OVCAR-4 ovarian): > 100 µM | GI50 (OVCAR-5 ovarian): 20.2 µM | TGI (OVCAR-5 ovarian): 55.3 µM | GI50 (OVCAR-8 ovarian): 32 µM | TGI (OVCAR-8 ovarian): > 100 µM | GI50 (PC-3 prostate): 24.6 µM | TGI (PC-3 prostate): 81.9 µM | GI50 (RPMI-8226 leukemia): 16.2 µM | TGI (RPMI-8226 leukemia): 30.5 µM | GI50 (RXF 393 renal): 56 µM | TGI (RXF 393 renal): > 100 µM | GI50 (SF-268 CNS): 24.5 µM | TGI (SF-268 CNS): 73.9 µM | GI50 (SF-295 CNS): > 100 µM | TGI (SF-295 CNS): > 100 µM | GI50 (SF-539 CNS): 13.1 µM | TGI (SF-539 CNS): 45.4 µM | GI50 (SK-MEL-2 melanoma): 24 µM | TGI (SK-MEL-2 melanoma): 41.7 µM | GI50 (SK-MEL-28 melanoma): 23.1 µM | TGI (SK-MEL-28 melanoma): 52.6 µM | GI50 (SK-MEL-5 melanoma): 17.2 µM | TGI (SK-MEL-5 melanoma): 36 µM | GI50 (SK-OV-3 ovarian): 14.3 µM | TGI (SK-OV-3 ovarian): 38.7 µM | GI50 (SN12C renal): 27.7 µM | TGI (SN12C renal): 89.3 µM | GI50 (SNB-19 CNS): 61.7 µM | TGI (SNB-19 CNS): > 100 µM | GI50 (SNB-75 CNS): 11.7 µM | TGI (SNB-75 CNS): > 100 µM | GI50 (SR leukemia): 19.1 µM | TGI (SR leukemia): 33.3 µM | GI50 (SW-620 colon): 19.6 µM | TGI (SW-620 colon): 41.4 µM | GI50 (T-47D breast): 53.7 µM | TGI (T-47D breast): > 100 µM | GI50 (TK-10 renal): 23.2 µM | TGI (TK-10 renal): 59.3 µM | GI50 (U251 glioblastoma): 35 µM | TGI (U251 glioblastoma): > 100 µM | GI50 (UACC-257 melanoma): 17.7 µM | TGI (UACC-257 melanoma): 47.8 µM | GI50 (UACC-62 melanoma): 25.9 µM | TGI (UACC-62 melanoma): 70.3 µM
